Source: PubChem BioAssay AID248 (DTP/NCI, 2004)
Several values for one entry are separate records, joined by “and”; a condition that tells them apart may be missing. Equal values may be shown once. Toxic doses and inconclusive results are not listed. No stated cut-off is given here; in the data, active means T/C of 150% or more; inactive means T/C below 125%.

Test system: L1210 leukemia ip in BDF1 mice, survival T/C
Test: NCI In Vivo Anticancer Drug Screen. Data for tumor model L1210 Leukemia (intraperitoneal) in B6D2F1 (BDF1) mice
Conditions: endpoint: mean survival time, higher = longer survival
Outline: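 Transplanted-tumor mice were given test agent; controls received vehicle only. Survival readings from the two groups were divided (treated over control).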

[1] = dose: 100.0 mg/kg/injection, schedule: Q04DX002 (ip), vehicle: saline with Tween-80
[2] = dose: 100.0 mg/kg/injection, schedule: Q01DX009 (ip), vehicle: saline with Tween-80
[3] = dose: 200.0 mg/kg/injection, schedule: Q01DX009 (ip), vehicle: saline with Tween-80
[4] = dose: 100.0 mg/kg/injection, schedule: Q01DX001 (ip), vehicle: carboxymethylcellulose (CMC)
[5] = dose: 200.0 mg/kg/injection, schedule: Q01DX001 (ip), vehicle: carboxymethylcellulose (CMC)
[6] = dose: 400.0 mg/kg/injection, schedule: Q01DX001 (ip), vehicle: carboxymethylcellulose (CMC)
[7] = dose: 100.0 mg/kg/injection, schedule: Q04DX003 (ip), vehicle: saline
[8] = dose: 100.0 mg/kg/injection, schedule: Q04DX002 (ip), vehicle: Klucel (hydroxypropylcellulose) (HPC)

Measured: T/C

CCCC(C)OS(=O)(=O)c1ccc(Br)cc1 (stereo not drawn)
inactive: dose: 100.0 mg/kg/injection, schedule: Q01DX009 (ip), vehicle: saline 91 % of control | [1] 97 % of control | dose: 200.0 mg/kg/injection, schedule: Q01DX009 (ip), vehicle: saline 96 % of control | dose: 200.0 mg/kg/injection, schedule: Q04DX002 (ip), vehicle: saline with Tween-80 100 % of control | dose: 400.0 mg/kg/injection, schedule: Q01DX009 (ip), vehicle: saline 86 % of control | dose: 400.0 mg/kg/injection, schedule: Q04DX002 (ip), vehicle: saline with Tween-80 97 % of control

CC(=O)OC1CCC2(C)C3CCC4(C)C(O)CCC4C3CC(O)C2(O)C1 (stereo not drawn)
inactive: [2] 110 % of control | [3] 97 % of control | dose: 400.0 mg/kg/injection, schedule: Q01DX009 (ip), vehicle: saline with Tween-80 94 % of control

C1CC2CCCN2C1
inactive: dose: 12.5 mg/kg/injection, schedule: Q01DX009 (ip), vehicle: saline 93 % of control | dose: 25.0 mg/kg/injection, schedule: Q01DX009 (ip), vehicle: saline 93 % of control | dose: 50.0 mg/kg/injection, schedule: Q01DX009 (ip), vehicle: saline 95 % of control

N#CCN(CC#N)CCCN(CC#N)CCCN(CC#N)CC#N
inactive: dose: 12.5 mg/kg/injection, schedule: Q01DX001 (ip), vehicle: saline with Tween-80 97 % of control | dose: 25.0 mg/kg/injection, schedule: Q01DX001 (ip), vehicle: saline with Tween-80 108 % of control | dose: 50.0 mg/kg/injection, schedule: Q01DX001 (ip), vehicle: saline with Tween-80 102 % of control

CC(/C=N/NC(N)=S)=N\NC(N)=S
inactive: dose: 12.5 mg/kg/injection, schedule: Q01DX Z (oral), vehicle: carboxymethylcellulose (CMC) 106 % of control | dose: 25.0 mg/kg/injection, schedule: Q01DX Z (oral), vehicle: carboxymethylcellulose (CMC) 113 % of control | dose: 50.0 mg/kg/injection, schedule: Q01DX001 (ip), vehicle: carboxymethylcellulose (CMC) 97 % of control | dose: 50.0 mg/kg/injection, schedule: Q01DX Z (ip), vehicle: carboxymethylcellulose (CMC) 95 % of control | dose: 50.0 mg/kg/injection, schedule: Q01DX Z (oral), vehicle: carboxymethylcellulose (CMC) 113 % of control | [4] 101 % of control | dose: 100.0 mg/kg/injection, schedule: Q01DX Z (ip), vehicle: carboxymethylcellulose (CMC) 100 % of control | dose: 100.0 mg/kg/injection, schedule: Q01DX Z (oral), vehicle: carboxymethylcellulose (CMC) 124 % of control | [5] 91 % of control | dose: 200.0 mg/kg/injection, schedule: Q01DX Z (ip), vehicle: carboxymethylcellulose (CMC) 103 % of control | [6] 97 % of control | dose: 400.0 mg/kg/injection, schedule: Q01DX Z (ip), vehicle: carboxymethylcellulose (CMC) 103 % of control

S=c1c2[nH]cnc2ncn1C1CCCCC1
inactive: dose: 4.4 mg/kg/injection, schedule: Q01DX009 (ip), vehicle: saline with Tween-80 96 % of control | dose: 6.7 mg/kg/injection, schedule: Q01DX009 (ip), vehicle: saline with Tween-80 102 % of control | dose: 10.0 mg/kg/injection, schedule: Q01DX009 (ip), vehicle: saline with Tween-80 90 % of control | dose: 15.0 mg/kg/injection, schedule: Q01DX009 (ip), vehicle: saline with Tween-80 95 % of control

COC(=O)NS(=O)(=O)OC
inactive: dose: 100.0 mg/kg/injection, schedule: Q04DX002 (ip), vehicle: saline 103 % of control | dose: 200.0 mg/kg/injection, schedule: Q04DX002 (ip), vehicle: saline 110 % of control

O=C(O)CSC(=S)c1ccccc1
inactive: dose: 25.0 mg/kg/injection, schedule: Q04DX002 (ip), vehicle: saline with Tween-80 103 % of control | dose: 50.0 mg/kg/injection, schedule: Q04DX002 (ip), vehicle: saline with Tween-80 103 % of control | dose: 50.0 mg/kg/injection, schedule: Q04DX003 (ip), vehicle: Klucel (hydroxypropylcellulose) (HPC) 108 % of control | [2] 93 % of control | [1] 118 % of control | dose: 100.0 mg/kg/injection, schedule: Q04DX003 (ip), vehicle: Klucel (hydroxypropylcellulose) (HPC) 97 % of control | [7] 97 % of control | [3] 93 % of control | dose: 200.0 mg/kg/injection, schedule: Q04DX003 (ip), vehicle: Klucel (hydroxypropylcellulose) (HPC) 105 % of control | dose: 200.0 mg/kg/injection, schedule: Q04DX003 (ip), vehicle: saline 100 % of control | dose: 400.0 mg/kg/injection, schedule: Q04DX003 (ip), vehicle: saline 97 % of control

CC(C)C[As](=O)(O)CC(C)C
inactive: dose: 25.0 mg/kg/injection, schedule: Q04DX003 (ip), vehicle: saline 104 % of control | dose: 50.0 mg/kg/injection, schedule: Q04DX003 (ip), vehicle: saline 109 % of control

COC1OC2COC(c3ccccc3)OC2C(O)C1OC(=S)SSC(=S)OC1C(OC)OC2COC(c3ccccc3)OC2C1O (stereo not drawn)
inactive: dose: 25.0 mg/kg/injection, schedule: Q04DX002 (ip), vehicle: Klucel (hydroxypropylcellulose) (HPC) 89 % of control | dose: 50.0 mg/kg/injection, schedule: Q04DX002 (ip), vehicle: Klucel (hydroxypropylcellulose) (HPC) 104 % of control | [8] 112 % of control

O=C(CCCl)[O][Pb]([O]C(=O)CCCl)([c]1ccccc1)[c]1ccccc1
inactive: [7] 108 % of control

O=c1ncccn1Cc1ccccc1
inactive: dose: 100.0 mg/kg/injection, schedule: Q01DX001 (ip), vehicle: Klucel (hydroxypropylcellulose) (HPC) 112 % of control | dose: 200.0 mg/kg/injection, schedule: Q01DX001 (ip), vehicle: Klucel (hydroxypropylcellulose) (HPC) 98 % of control | dose: 400.0 mg/kg/injection, schedule: Q01DX001 (ip), vehicle: Klucel (hydroxypropylcellulose) (HPC) 107 % of control

O=C(O)/C(=C\c1ccccc1Br)c1ccc(C(F)(F)F)cc1[N+](=O)[O-]
inactive: dose: 100.0 mg/kg/injection, schedule: Q01DX009 (ip), vehicle: saline sonified 109 % of control | dose: 200.0 mg/kg/injection, schedule: Q01DX009 (ip), vehicle: saline sonified 98 % of control

CNC(Cc1ccc(OCc2ccccc2)cc1)C(=O)NC(CO)CC(C)C (stereo not drawn)
inactive: dose: 100.0 mg/kg/injection, schedule: Q04DX003 (ip), vehicle: saline with Tween-80 102 % of control | dose: 200.0 mg/kg/injection, schedule: Q04DX003 (ip), vehicle: saline with Tween-80 96 % of control | dose: 400.0 mg/kg/injection, schedule: Q04DX003 (ip), vehicle: saline with Tween-80 105 % of control

O=[N+]([O-])c1cc(S(=O)(=O)c2ccc(S)c([N+](=O)[O-])c2)ccc1S
inactive: [8] 89 % of control | dose: 200.0 mg/kg/injection, schedule: Q04DX002 (ip), vehicle: Klucel (hydroxypropylcellulose) (HPC) 92 % of control | dose: 400.0 mg/kg/injection, schedule: Q04DX002 (ip), vehicle: Klucel (hydroxypropylcellulose) (HPC) 92 % of control

O=C(Nc1cc(Cl)ccc1O)Nc1cc(C(F)(F)F)ccc1Cl
inactive: [4] 101 % of control | dose: 100.0 mg/kg/injection, schedule: Q01DX009 (ip), vehicle: carboxymethylcellulose (CMC) 95 % of control and 103 % of control | dose: 100.0 mg/kg/injection, schedule: Q04DX002 (ip), vehicle: carboxymethylcellulose (CMC) 97 % of control and 104 % of control | dose: 100.0 mg/kg/injection, schedule: Q04DX003 (ip), vehicle: carboxymethylcellulose (CMC) 97 % of control | [5] 97 % of control | dose: 200.0 mg/kg/injection, schedule: Q01DX009 (ip), vehicle: carboxymethylcellulose (CMC) 97 % of control and 103 % of control | dose: 200.0 mg/kg/injection, schedule: Q04DX002 (ip), vehicle: carboxymethylcellulose (CMC) 97 % of control and 104 % of control | dose: 200.0 mg/kg/injection, schedule: Q04DX003 (ip), vehicle: carboxymethylcellulose (CMC) 97 % of control | [6] 98 % of control | dose: 400.0 mg/kg/injection, schedule: Q01DX009 (ip), vehicle: carboxymethylcellulose (CMC) 92 % of control and 97 % of control | dose: 400.0 mg/kg/injection, schedule: Q04DX002 (ip), vehicle: carboxymethylcellulose (CMC) 98 % of control and 90 % of control | dose: 400.0 mg/kg/injection, schedule: Q04DX003 (ip), vehicle: carboxymethylcellulose (CMC) 100 % of control

CCCOc1cccc(C(=N)N)c1
inactive: dose: 75.0 mg/kg/injection, schedule: Q01DX001 (ip), vehicle: Klucel (hydroxypropylcellulose) (HPC) 97 % of control | dose: 150.0 mg/kg/injection, schedule: Q01DX001 (ip), vehicle: Klucel (hydroxypropylcellulose) (HPC) 96 % of control | dose: 300.0 mg/kg/injection, schedule: Q01DX001 (ip), vehicle: Klucel (hydroxypropylcellulose) (HPC) 96 % of control

CN(N(P(N)(Cl)(c1ccccc1)c1ccccc1)P(N)(Cl)(c1ccccc1)c1ccccc1)P(N)(Cl)(c1ccccc1)c1ccccc1
inactive: dose: 100.0 mg/kg/injection, schedule: Q01DX001 (ip), vehicle: steriod suspending solution 113 % of control | dose: 200.0 mg/kg/injection, schedule: Q01DX001 (ip), vehicle: steriod suspending solution 108 % of control
